Values quoted from earlier work in patent publication US20160331796A1, “ENRICHED AMARANTHUS BLITOIDES COMPOSITIONS AND USES THEREOF” (priority 2010, published 2016).

System: prostate cancer cell lines, and primary prostate tumor lines

Substance: Vitamin D
- effect on invasion of prostate cancer cells (in vitro): decrease invasion
- expression of α6 and β4 integrins (integrins associated with increased migration and invasion of prostate cancer cells in vitro): decreased expression
- effect on proliferation and differentiation of tumor cell types (several tumor cell types, including prostate cancer cell lines and primary prostate tumor lines): inhibit proliferation and promote differentiation
